Measured values: paper PMC4411097, “Pachymic Acid Inhibits Growth and Induces Apoptosis of Pancreatic Cancer In Vitro and In Vivo by Targeting ER Stress” (PLoS ONE, 2015)

Tested on: MIA PaCa-2 cells
Test: DNA microarray analysis (Affymetrix Human PrimeView)
Type: cell-based
[1] = gene SRP19, probeset 11758864_at
[2] = gene STC1, probeset 11750279_a_at
[3] = gene TMEM201, probeset 11726819_at
[4] = gene TNFAIP2, probeset 11717823_s_at
[5] = gene TNFRSF12A, probeset 11745020_a_at
[6] = gene TNFSF18, probeset 11737853_at
[7] = gene TRAF1, probeset 11721588_at
[8] = gene TXNRD1, probeset 11750416_a_at
[9] = gene symbol ---, probeset AFFX-M27830_M_at

## C=C(CC[C@@H](C(=O)O)[C@H]1[C@H](O)C[C@@]2(C)C3=C(CC[C@]12C)[C@@]1(C)CC[C@H](OC(C)=O)C(C)(C)[C@@H]1CC3)C(C)C [PA, Pachymic acid]
Gene SPRY4, probeset 11736669_s_at, MiaPaca-2, PA-treated
  Mean (MiaPaca-2 * PA): 6.19
[1]
  Fold-Change (MiaPaca-2 * PA vs. MiaPaca-2 * control): 1.58
  Mean (MiaPaca-2 * PA): 8.71
[2]
  Fold-Change (MiaPaca-2 * PA vs. MiaPaca-2 * control): 1.56
  Mean (MiaPaca-2 * PA): 5.97
Gene STX1A, probeset 11720340_a_at
  Mean (MiaPaca-2 * PA): 6.73
[3]
  Fold-Change (MiaPaca-2 * PA vs. MiaPaca-2 * control): 1.56
  Mean (MiaPaca-2 * PA): 6.77
Gene TNF, probeset 11721577_at
  Fold-Change (MiaPaca-2 * PA vs. MiaPaca-2 * control): 1.57
  Mean (MiaPaca-2 * PA): 5.89
[4]
  Fold-Change (MiaPaca-2 * PA vs. MiaPaca-2 * control): 1.60
  Mean (MiaPaca-2 * PA): 8.52
[5]
  Fold-Change (MiaPaca-2 * PA vs. MiaPaca-2 * control): 1.59
  Mean (MiaPaca-2 * PA): 9.93
[6]
  Fold-Change (MiaPaca-2 * PA vs. MiaPaca-2 * control): 1.61
  Mean (MiaPaca-2 * PA): 7.58
Gene TRA2B, probeset 11734663_at, MiaPaca-2
  Fold-Change (MiaPaca-2 * PA vs. MiaPaca-2 * control): 1.51
Gene TRA2B, probeset 11734663_at, MiaPaca-2, PA-treated
  Mean (MiaPaca-2 * PA): 5.21
[7]
  Fold-Change (MiaPaca-2 * PA vs. MiaPaca-2 * control): 1.57
  Mean (MiaPaca-2 * PA): 5.45
[8]
  Fold-Change (MiaPaca-2 * PA vs. MiaPaca-2 * control): 1.56
  Mean (MiaPaca-2 * PA): 9.74
[9]
  Fold-Change (MiaPaca-2 * PA vs. MiaPaca-2 * control): 1.54
  Mean (MiaPaca-2 * PA): 11.57
Probeset 11715388_s_at
  Fold-Change (MiaPaca-2 * PA vs. MiaPaca-2 * control), CDKN1A: 1.87
  Mean (MiaPaca-2 * PA), CDKN1A: 8.59
Probeset 11715441_a_at
  Fold-Change (MiaPaca-2 * PA vs. MiaPaca-2 * control), CTGF: 2.27
  Mean (MiaPaca-2 * PA), CTGF: 6.57
Probeset 11715442_s_at
  Fold-Change (MiaPaca-2 * PA vs. MiaPaca-2 * control), CTGF: 2.36
  Mean (MiaPaca-2 * PA), CTGF: 7.76
Probeset 11715493_a_at
  Fold-Change (MiaPaca-2 * PA vs. MiaPaca-2 * control), CYR61: 2.12
  Mean (MiaPaca-2 * PA), CYR61: 10.88
Probeset 11715636_a_at
  Fold-Change (MiaPaca-2 * PA vs. MiaPaca-2 * control), SERPINE1: 1.72
  Mean (MiaPaca-2 * PA), SERPINE1: 9.63
Probeset 11715766_a_at
  Fold-Change (MiaPaca-2 * PA vs. MiaPaca-2 * control), DUSP1: 1.72
  Mean (MiaPaca-2 * PA), DUSP1: 8.75
Probeset 11716939_a_at
  Fold-Change (MiaPaca-2 * PA vs. MiaPaca-2 * control), HMOX1: 1.83
  Mean (MiaPaca-2 * PA), HMOX1: 7.80
Probeset 11717039_a_at
  Fold-Change (MiaPaca-2 * PA vs. MiaPaca-2 * control), GADD45A: 1.88
  Mean (MiaPaca-2 * PA), GADD45A: 11.35
Probeset 11717860_a_at
  Fold-Change (MiaPaca-2 * PA vs. MiaPaca-2 * control), EGR1: 1.78
  Mean (MiaPaca-2 * PA), EGR1: 10.72
Probeset 11718618_a_at
  Fold-Change (MiaPaca-2 * PA vs. MiaPaca-2 * control), DNAJA4: 2.01
  Mean (MiaPaca-2 * PA), DNAJA4: 6.51
Probeset 11718841_s_at
  Fold-Change (MiaPaca-2 * PA vs. MiaPaca-2 * control), IL8: 2.40
  Mean (MiaPaca-2 * PA), IL8: 12.69
Probeset 11718939_s_at
  Fold-Change (MiaPaca-2 * PA vs. MiaPaca-2 * control), TNFAIP3: 2.11
  Mean (MiaPaca-2 * PA), TNFAIP3: 7.50
Probeset 11718940_a_at
  Fold-Change (MiaPaca-2 * PA vs. MiaPaca-2 * control), TNFAIP3: 2.00
  Mean (MiaPaca-2 * PA), TNFAIP3: 6.10
Probeset 11719344_a_at
  Fold-Change (MiaPaca-2 * PA vs. MiaPaca-2 * control), ATF3: 3.30
  Mean (MiaPaca-2 * PA), ATF3: 7.56
Probeset 11719366_s_at
  Fold-Change (MiaPaca-2 * PA vs. MiaPaca-2 * control), CXCL1: 2.03
  Mean (MiaPaca-2 * PA), CXCL1: 12.27
Probeset 11719811_a_at
  Fold-Change (MiaPaca-2 * PA vs. MiaPaca-2 * control), TRIB3: 1.77
  Mean (MiaPaca-2 * PA), TRIB3: 9.38
Probeset 11719898_s_at
  Fold-Change (MiaPaca-2 * PA vs. MiaPaca-2 * control), HBEGF: 2.54
  Mean (MiaPaca-2 * PA), HBEGF: 8.25
Probeset 11719916_at
  Fold-Change (MiaPaca-2 * PA vs. MiaPaca-2 * control), IL1B: 1.90
  Mean (MiaPaca-2 * PA), IL1B: 7.92
Probeset 11720062_s_at
  Fold-Change (MiaPaca-2 * PA vs. MiaPaca-2 * control), IER3: 2.10
  Mean (MiaPaca-2 * PA), IER3: 10.23
Probeset 11722141_at
  Fold-Change (MiaPaca-2 * PA vs. MiaPaca-2 * control), RELB: 1.71
  Mean (MiaPaca-2 * PA), RELB: 7.47
Probeset 11722705_at
  Fold-Change (MiaPaca-2 * PA vs. MiaPaca-2 * control), B3GNT5: 1.83
  Mean (MiaPaca-2 * PA), B3GNT5: 6.95
Probeset 11722850_a_at
  Fold-Change (MiaPaca-2 * PA vs. MiaPaca-2 * control), BIRC3: 1.69
  Mean (MiaPaca-2 * PA), BIRC3: 8.98
Probeset 11722851_at
  Fold-Change (MiaPaca-2 * PA vs. MiaPaca-2 * control), BIRC3: 1.77
  Mean (MiaPaca-2 * PA), BIRC3: 7.17
Probeset 11722867_at
  Fold-Change (MiaPaca-2 * PA vs. MiaPaca-2 * control), CDCP1: 1.68
  Mean (MiaPaca-2 * PA), CDCP1: 8.84
Probeset 11723050_a_at
  Fold-Change (MiaPaca-2 * PA vs. MiaPaca-2 * control), HSPA6: 9.74
  Mean (MiaPaca-2 * PA), HSPA6: 8.06
Probeset 11723753_a_at
  Fold-Change (MiaPaca-2 * PA vs. MiaPaca-2 * control), ZFAND2A: 2.17
  Mean (MiaPaca-2 * PA), ZFAND2A: 9.04
Probeset 11724478_s_at
  Fold-Change (MiaPaca-2 * PA vs. MiaPaca-2 * control), FOSL1: 1.74
  Mean (MiaPaca-2 * PA), FOSL1: 8.17
Probeset 11726329_x_at
  Fold-Change (MiaPaca-2 * PA vs. MiaPaca-2 * control), GBP1: 1.76
  Mean (MiaPaca-2 * PA), GBP1: 5.88
Probeset 11728413_at
  Fold-Change (MiaPaca-2 * PA vs. MiaPaca-2 * control), SERPINB8: 1.95
  Mean (MiaPaca-2 * PA), SERPINB8: 8.88
Probeset 11728476_a_at
  Fold-Change (MiaPaca-2 * PA vs. MiaPaca-2 * control), CXCL3: 2.47
  Mean (MiaPaca-2 * PA), CXCL3: 8.40
Probeset 11728477_at
  Fold-Change (MiaPaca-2 * PA vs. MiaPaca-2 * control), CXCL3: 2.55
  Mean (MiaPaca-2 * PA), CXCL3: 8.95
Probeset 11729119_a_at
  Fold-Change (MiaPaca-2 * PA vs. MiaPaca-2 * control), HSPA1A /// HSPA1B: 1.71
  Mean (MiaPaca-2 * PA), HSPA1A /// HSPA1B: 11.39
